Consider 11 compounds from patent US20250313900A1, “COMPOSITIONS AND THERAPEUTIC AGENTS FOR MODULATING INFLAMMATORY RESPONSES ON BOTH TUMOR AND IMMUNE CELLS” (THE METHODIST HOSPITAL, priority 2022, published 2025).

SMILES strings stand for the structures. Like-named read-outs stand apart in the source and are kept apart here.

For one assay, the target named is T1, CMTM4 (Mus musculus, UniProt Q8CJ61).
T1 construct: endogenous in cells; LLC and 4T1 are the only lines named in the screen
In words: CMTM4 level (compound screening). It counts as cell-based. Here is the method: (§1) Protein samples from cells were separated on sodium dodecyl sulfate (SDS)-polyacrylamide gels and transferred to PVDF membranes. The membranes were blocked in 4% skim milk solution, incubated with the appropriate antibody, and subsequently incubated with a secondary antibody conjugated with horseradish peroxidase. The antibodies for p-NF-κBp65, NF-κBp65. EGFR, PTEN, Akt, p-Akt, mTOR, p-mTOR, S6, p-S6, Rab4, Rab5a, Rab11, Tubulin, actin, vinculin, and CMTM4 were purchased from Cell Signaling Technology, Inc. (Beverly, MA) and the antibody for Rab21 was purchased from Santa Cruz Biotechnology. The immunoreactive bands were visualized using the ECL system (Thermo Scientific). Control and CMTM4 KD cell lysates were analyzed using the proteome profiler mouse phospho-receptor tyrosine kinase array kit (R&D Systems) following the manufacturer's instructions. For immunoprecipitation, Dynabeads His-Tag isolation and pulldown kit (Life Technologies) was used. The pull-down samples were subjected to immunoblot assays.

The test system of the next assay is glycolysis. The experiment in a line: Test glycolysis (compound screening). It counts as cell-based. The source says: (§2) The initial screening was followed by the following assessments: 1) MHC 11 assay by high-throughput flow cytometry. 2) IL-6 production. 3) NF-kB promoter activity using CMTM4-expressing NF-kB/secreted embryonic alkaline phosphatase (SEAP) reporter stable cell lines using both LLC and 4T1 cells. 4) Inhibition of EGF-mediated G-CSF secretion from tumor cells. 5) Test glycolysis (FIG. 13).

A further assay deals with IL-6. The experiment in a line: IL-6 production (compound screening). The class given is cell-based.
Source text: as §2

Another assay concerns p-Akt/p-mTOR. The experiment in a line: p-Akt/p-mTOR (compound screening). It counts as cell-based. Here is the method: as §1
Assay [1] deals with NF-kB promoter activity in LLC cells. In words: NF-kB promoter activity, CMTM4-expressing NF-kB/SEAP reporter stable LLC cells. It counts as cell-based, murine.
Source text: as §2

For assay [2], the system named is NF-kB promoter activity in 4T1 cells. The experiment in a line: NF-kB promoter activity, CMTM4-expressing NF-kB/SEAP reporter stable 4T1 cells. It counts as cell-based, murine.
Source text: as §2

Another assay deals with G-CSF. The experiment in a line: Inhibition of EGF-mediated G-CSF secretion from tumor cells. The class given is cell-based. How it is done:
as §2
Secretion of G-CSF was determined using ELISA kits according to the manufacturer's instructions (Life Technologies).

A further assay deals with MHC II. In words: MHC II assay by high-throughput flow cytometry (compound screening). The class given is cell-based.
Source text: as §2
(In flow cytometry, cells or beads pass a laser one at a time.)

T1 sequence (Q8CJ61 whole entry): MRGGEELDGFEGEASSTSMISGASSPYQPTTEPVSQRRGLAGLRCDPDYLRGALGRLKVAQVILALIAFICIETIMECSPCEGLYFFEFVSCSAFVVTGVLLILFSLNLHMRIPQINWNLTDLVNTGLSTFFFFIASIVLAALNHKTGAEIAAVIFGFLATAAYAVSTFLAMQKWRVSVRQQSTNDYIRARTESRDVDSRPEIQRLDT

Take `C/C=C/C(=O)O` [C4H6O2, CROTONIC ACID, CROTONIC ACID]: on CMTM4, the CMTM4 result is given as “No difference”. The Glycolysis result with glycolysis is listed as “Inhibit”. Further, the “IL-6 (%)” value with IL-6 was determined as 4.438%. In addition, in the assay with p-Akt/p-mTOR, the p-Akt/p-mTOR entry is listed as “Decrease”.

As for `Cc1ccccc1OCC(O)CO` (stereo not shown) [C10H14O3, Mephenesin, Mephenesin], at CMTM4, the CMTM4 entry is “No difference”. Moreover, the Glycolysis entry in the assay on glycolysis is “Inhibit”. Moreover, the “IL-6 (%)” value with IL-6 is 0.5625%. For the same compound, the p-Akt/p-mTOR entry in the assay with p-Akt/p-mTOR is “Decrease”.

In the case of `N#Cc1cn([C@@H]2O[C@H](CO)[C@@H](O)[C@H]2O)c2ncnc(N)c12` [C12H13N5O4, Toyocamycin, Toyocamycin], the CMTM4 result at CMTM4 is on record as “No difference”. For the same compound, in the assay on glycolysis, the Glycolysis result is recorded as “Inhibit”. Further, the “IL-6 (%)” value with IL-6 is listed as −3.717%. Also, the p-Akt/p-mTOR entry in the assay on p-Akt/p-mTOR is “Decrease”.

On to `C[C@H]1O[C@H](O[C@H]2[C@H](O)[C@@H](O)[C@@H](O)[C@H](O)[C@@H]2O)[C@@H](N)C[C@@H]1NC(=N)C(=O)O` [C14H25N3O9, Kasugamycin, Kasugamycin], for which the CMTM4 result at CMTM4 was “No difference”. Also, the Glycolysis result with glycolysis is on record as “Inhibit”. Also, the “NF-kB (%)-LLC” value in assay [1] turned out to be 46.83%. The “IL-6 (%)” value in the assay on IL-6 was found to be 1.934%. Further, in assay [2], the “NF-kB (%)-4T1” value is given as 44.19%. Moreover, the p-Akt/p-mTOR result in the assay with p-Akt/p-mTOR is “Decrease”. In addition, the “G-CSF (%)” value in the assay on G-CSF amounted to 66.41%. For the same compound, the “MHC II (%)” value with MHC II came to 483.4%.

As for `COc1cc(-c2oc3cc(O)cc(O)c3c(=O)c2O)ccc1O` [C16H12O7, Isorhamnctin, Isorhamnetin], the CMTM4 entry on CMTM4 is recorded as “No difference”. Moreover, the Glycolysis entry in the assay on glycolysis was “Inhibit”. The “IL-6 (%)” value in the assay on IL-6 is −11.581%. The p-Akt/p-mTOR entry with p-Akt/p-mTOR is reported as “Decrease”.

`COc1cc(O)c2c(=O)c(O)c(-c3ccc(O)c(O)c3)oc2c1` [C16H12O7, Rhamnetin, Rhamnetin]: the CMTM4 result on CMTM4 is listed as “No difference”. Also, the Glycolysis entry in the assay with glycolysis is given as “Inhibit”. Also, in the assay with IL-6, the “IL-6 (%)” value is recorded as −5.243%. In addition, the p-Akt/p-mTOR entry with p-Akt/p-mTOR is recorded as “Decrease”.

Take `CO[C@H]1Nc2c(ccc(C)c2O)C(=O)N2C=C(/C=C/C(N)=O)C[C@@H]12` [C17H19N3O4, Anthramycin methyl ether, Anthramycin methyl ether]: at CMTM4, the CMTM4 result is reported as “No difference”. In the assay with glycolysis, the Glycolysis result is on record as “Inhibit”. Besides, in the assay with IL-6, the “IL-6 (%)” value is −1.982%. Moreover, in the assay with p-Akt/p-mTOR, the p-Akt/p-mTOR result was “Decrease”.

As for `O=C(/C=C/c1ccc(O)c(O)c1)O[C@H](Cc1ccc(O)c(O)c1)C(=O)O` [C18H16O8, Rosmarinic Acid, Rosmarinic Acid], at CMTM4, the CMTM4 entry was “No difference”. In the assay with glycolysis, the Glycolysis entry is on record as “Inhibit”. The “IL-6 (%)” value in the assay on IL-6 is −0.1232%. Moreover, the p-Akt/p-mTOR result in the assay on p-Akt/p-mTOR was “Decrease”.

For the compound `CCc1cccc2c1c(O)c(C(=O)N(CC)c1ccccc1)c(=O)n2C` [C21H22N2O3, Paquinimod, Paquinimod], the CMTM4 entry at CMTM4 is given as “No difference”. For the same compound, the Glycolysis entry in the assay with glycolysis is recorded as “Inhibit”. In addition, the “NF-kB (%)-LLC” value in assay [1] (LLC reporter cells) worked out at 32.6%. Also, the “IL-6 (%)” value in the assay on IL-6 is given as −0.809%. Besides, in assay [2] (4T1 reporter cells), the “NF-kB (%)-4T1” value came to 46.87%. The p-Akt/p-mTOR entry with p-Akt/p-mTOR was “Decrease”. Further, the “G-CSF (%)” value in the assay on G-CSF (EGF-mediated secretion) is 3.464%. Moreover, the “MHC II (%)” value in the assay on MHC II stood at 520.6%.

Consider `CC[C@]12CCCN3CCc4c(n(c5ccccc45)[C@@](O)(C(=O)OC)C1)[C@@H]32` [C21H26N2O3, Vincamine, Vincamine], for which the CMTM4 entry on CMTM4 is “Decrease”. The Glycolysis entry in the assay on glycolysis is given as “Inhibit”. Besides, the “IL-6 (%)” value with IL-6 turned out to be 5.815%. Moreover, the p-Akt/p-mTOR result in the assay on p-Akt/p-mTOR is listed as “No difference”.

For `CCCCC1CCCCCCc2[nH]c(/C=C3\N=C(c4ccc[nH]4)C=C3OC)cc21.Cl` (stereo not shown) [C25H33N3O•ClH, Butylcycloheptylprodiginine Hydrochloride], on CMTM4, the CMTM4 entry is given as “Decrease”. Besides, the Glycolysis result in the assay with glycolysis was “Inhibit”. In assay [1] (LLC reporter cells), the “NF-kB (%)-LLC” value amounted to 53.61%. The “IL-6 (%)” value in the assay on IL-6 is listed as −6.005%. Further, the “NF-kB (%)-4T1” value in assay [2] (4T1 reporter cells) is reported as 45.8%. Moreover, the “G-CSF (%)” value in the assay with G-CSF (EGF-mediated secretion) amounted to 4.236%. Further, in the assay on MHC II, the “MHC II (%)” value came out at 426.2%.
